Assays:
[1] = tested on: lethal effect of 125 mgm/kg of pentylenetetrazole; test: Pentetrazole antagonism test (anticonvulsive activity); format: in vivo, Mouse; albino mice (NMRI); details: po, 1 h; mouse; p.o.; 125 mgm/kg pentylenetetrazole i.p. one hour after test compound; values graphically determined
Description: (§1) 1. Pentetrazole antagonisim [M. I. Gluckmann, Curr. Ther. Res. 7, 721 (1965)]. The median effective dose (ED50) of the test compound is determined which cancels the lethal effect of 125 mgm/kg of pentylenetetrazole in 50% of the test animals; the pentylenetetrazole is administered intraperitoneally one hour after administration of the test compound.
(§2) Albino mice (NMRI) having a body weight of 20 to 25 gm or albino rats (FW-49) having a body weight of 140 to 200 gm were used as the test animals, and the test compounds were administered perorally as a suspension in olive oil by means of an esophageal sound.

[2] = Toxicity, median lethal dose (Litchfield and Wilcoxon); design: species or system Mouse; albino mice (NMRI); details: in vivo, po, mouse; for selectivity ratio: p.o., LD50 over pentylenetetrazole antagonism ED50, read-out: Therap. Index LD50:ED50
Description: 5. Toxicity [Litchfield and Wilcoxon, J. Pharmacol. Exp. Therap. 96, 99(1949)]. Determination of median lethal dose (LD50).
as §2

[3] = tested on: warm-blooded animals, such as mice and rats; test: Standard pharmacodynamic test methods (pentetrazole antagonism, electroshock, conflicting situation, fighting test); format: in vivo; details: in words
Description: The above-indicated pharmacodynamic properties of the compounds of this invention were ascertained by means of various standard test methods, namely the following:
as §1
2. Electroshock [J. E. P. Tomann et al, J. Neuro-Physiol. 9, 231 (1946)].
3. Conflicting Situation (Inhibition of Passive Avoidance Test) [J. Geller, Arch. Int. Pharmacodyn. 149,243 (1964)].
4. Fighting Test (Suppression of isolation-induced aggressiveness in mice) [Wirth et al; Arch. Int. Pharmcodyn. 115, 1-31 (1958)].
as §2

SMILES | ED50 [1] | LD50 [2] | selectivity ratio [2] | effectiveness among the compounds of formula I [3]
Cc1nnc2n1-c1sc(Br)cc1C(c1ccccc1F)=NC2 [B, 8-bromo-6-(o-fluorophenyl)-1-methyl-4H-s-triazolo[3,4c]thieno[2,3e]1,4-diazepine] | 0.15 mg/kg | > 3300 mg/kg | > 22000 | 
Cc1nnc2n1-c1sc(Br)cc1C(c1ccccc1Br)=NC2 [C, 8-bromo-6-(o-bromophenyl)-1-methyl-4H-s-triazolo[3,4c]thieno[2,33]1,4-diazepine] | 0.12 mg/kg | > 3500 mg/kg | > 29200 | particularly effective
Cc1nnc2n1-c1sc(Br)cc1C(c1ccccc1)=NC2 [D, 8-bromo-6-phenyl-1-methyl-4H-s-triazolo[3,4]thieno[2,3e]1,4-diazepine] | 0.8 mg/kg |  |  | 
Cc1nnc2n1-c1sc(Cl)cc1C(c1ccccc1)=NC2 [H, 8-chloro-6-phenyl-1-methyl-4H-s-triazolo[3,4c]thieno[2,3e]1,4-diazepine, reference compound] | 3 mg/kg |  |  | 
Cc1nnc2n1-c1sc(Br)cc1C(c1ccccc1Cl)=NC2 [A, 8-bromo-6-(o-chlorophenyl)-1-methyl-4H-s-triazolo [3,4c]thieno[2,3e]1,4-diazepine] | 0.07 mg/kg | > 3500 mg/kg | > 50000 | particularly effective
CCc1cc2c(s1)-n1c(C)nnc1CN=C2c1ccccc1Cl [E, 8-ethyl-6-(o-chlorophenyl)-1-methyl-4H-s-triazolo[3,4c]thieno[2,3e]-1,4-diazepine, reference compound] | 0.7 mg/kg | 3070 mg/kg | 4390 | 
Cc1nnc2n1-c1sc(Cl)cc1C(c1ccccc1Cl)=NC2 [F, 8-chloro-6-(o-chlorophenyl)-1-methyl-4H-s-triazolo[3,4c]thieno[2,3e]1,4-diazepine, reference compound] | 1 mg/kg | 2300 mg/kg | 2300 | 
Cc1nnc2n1-c1sc(Cl)cc1C(c1ccccc1Br)=NC2 [G, 8-chloro-6-(o-bromophenyl)-1-methyl-4H-s-triazolo[3,4c]thieno[2,3e]1,4-diazepine, reference compound] | 0.7 mg/kg | 2200 mg/kg | 3140 | 

Source: patent publication US4094984A, “6-Phenyl-8-bromo-4H-s-triazolo-[3,4C]-thieno-[2,3E]-1,4-diazepines and salts thereof” (Boehringer Ingelheim GmbH, priority 1974, dated 1978)
